Experimental findings from PubChem BioAssay AID1259407 (Chemical Carcinogenesis Research Information System (CCRIS), 2018) are described below.

Structures are written as SMILES. Active and inactive are the calls of the source. No rule for the calls is given here.

In this series the test system is CCRIS mutagenicity, Ames/micronucleus/aberration tests. In words: CCRIS mutagenicity studies.
Where [1] appears, read: Test System: AMES SALMONELLA TYPHIMURIUM, Strain/Indicator: TA98, Metabolic Activation: NONE, Method: STANDARD PLATE.
Where [2] appears, read: Test System: AMES SALMONELLA TYPHIMURIUM, Strain/Indicator: TA1537, Metabolic Activation: NONE, Method: STANDARD PLATE.
[3] abbreviates: Test System: AMES SALMONELLA TYPHIMURIUM, Strain/Indicator: TA1538, Metabolic Activation: NONE, Method: STANDARD PLATE.

Take `O=C(O)CNCP(=O)(O)O`: the mutagenic call was “inactive; negative” (End Point: IN VITRO MICRONUCLEUS, Test System: BOVINE LYMPHOCYTES, Metabolic Activation: NONE); “active; positive (structural changes and ploidy)” (End Point: IN VIVO CHROMOSOMAL ABERRATIONS, Test System: BONE MARROW ERYTHROCYTES, Species: RABBIT, Strain/Sex: NEW ZEALAND/MALE, Route: DRINKING WATER); “inactive; negative” (End Point: IN VIVO MICRONUCLEUS, Test System: BONE MARROW POLYCHROMATIC ERYTHROCYTES, Species: MOUSE, Strain/Sex: SWISS/MALE, FEMALE, Route: IP 2X IN AQUEOUS SUSPENSION WITHIN 24 HR); “inactive; negative” (End Point: In vitro chromosomal aberrations, Test System: Bovine peripheral lymphocytes, Metabolic Activation: None); “active; positive (highest dose only)” (End Point: In vivo micronucleus, Test System: Bone marrow erythrocytes, Species: Mouse, Strain/Sex: Balb C/Male, female, Route: Intraperitoneal injection); “inactive; negative” (Test System: AMES SALMONELLA TYPHIMURIUM, Strain/Indicator: TA97, Metabolic Activation: HAMSTER, LIVER, S-9, AROCLOR 1254 (10%), Method: PREINCUBATION). Besides, the mutagenic call by setting is: (Test System: AMES SALMONELLA TYPHIMURIUM, Strain/Indicator: TA97, Metabolic Activation: HAMSTER, LIVER, S-9, AROCLOR 1254 (30%), Method: PREINCUBATION) “inactive; negative”; (Test System: AMES SALMONELLA TYPHIMURIUM, Strain/Indicator: TA97, Metabolic Activation: NONE, Method: PREINCUBATION) “inactive; negative”; (Test System: AMES SALMONELLA TYPHIMURIUM, Strain/Indicator: TA97, Metabolic Activation: RAT, LIVER, S-9, AROCLOR 1254 (10%), Method: PREINCUBATION) “inactive; negative”; (Test System: AMES SALMONELLA TYPHIMURIUM, Strain/Indicator: TA97, Metabolic Activation: RAT, LIVER, S-9, AROCLOR 1254 (30%), Method: PREINCUBATION) “inactive; negative”; (Test System: AMES SALMONELLA TYPHIMURIUM, Strain/Indicator: TA98, Metabolic Activation: HAMSTER, LIVER, S-9, AROCLOR 1254 (10%), Method: PREINCUBATION) “inactive; negative”; (Test System: AMES SALMONELLA TYPHIMURIUM, Strain/Indicator: TA98, Metabolic Activation: HAMSTER, LIVER, S-9, AROCLOR 1254 (30%), Method: PREINCUBATION) “inactive; negative”. The mutagenic call (Test System: AMES SALMONELLA TYPHIMURIUM, Strain/Indicator: TA98, Metabolic Activation: NONE, Method: PREINCUBATION) is “inactive; negative”; the mutagenic call under setting [1] is “inactive; negative”; the mutagenic call (Test System: AMES SALMONELLA TYPHIMURIUM, Strain/Indicator: TA98, Metabolic Activation: RAT, LIVER, S-9, AROCLOR 1254 (10%), Method: PREINCUBATION) is “inactive; negative”; the mutagenic call (Test System: AMES SALMONELLA TYPHIMURIUM, Strain/Indicator: TA98, Metabolic Activation: RAT, LIVER, S-9, AROCLOR 1254 (30%), Method: PREINCUBATION) is “inactive; negative”; the mutagenic call (Test System: AMES SALMONELLA TYPHIMURIUM, Strain/Indicator: TA98, Metabolic Activation: RAT, LIVER, S-9, AROCLOR 1254, Method: STANDARD PLATE) is “inactive; negative”; the mutagenic call (Test System: AMES SALMONELLA TYPHIMURIUM, Strain/Indicator: TA98, Metabolic Activation: S-9, AROCLOR 1254, Method: STANDARD PLATE) was “inactive; negative”. In addition, the mutagenic call reads like this: (Test System: AMES SALMONELLA TYPHIMURIUM, Strain/Indicator: TA100, Metabolic Activation: HAMSTER, LIVER, S-9, AROCLOR 1254 (10%), Method: PREINCUBATION) “inactive; negative”; (Test System: AMES SALMONELLA TYPHIMURIUM, Strain/Indicator: TA100, Metabolic Activation: HAMSTER, LIVER, S-9, AROCLOR 1254 (30%), Method: PREINCUBATION) “inactive; negative”; (Test System: AMES SALMONELLA TYPHIMURIUM, Strain/Indicator: TA100, Metabolic Activation: NONE, Method: PREINCUBATION) “inactive; negative”; (Test System: AMES SALMONELLA TYPHIMURIUM, Strain/Indicator: TA100, Metabolic Activation: NONE, Method: STANDARD PLATE) “inactive; negative”; (Test System: AMES SALMONELLA TYPHIMURIUM, Strain/Indicator: TA100, Metabolic Activation: RAT, LIVER, S-9, AROCLOR 1254 (10%), Method: PREINCUBATION) “inactive; negative”; (Test System: AMES SALMONELLA TYPHIMURIUM, Strain/Indicator: TA100, Metabolic Activation: RAT, LIVER, S-9, AROCLOR 1254 (30%), Method: PREINCUBATION) “inactive; negative”. Besides, the mutagenic call is, setting by setting: (Test System: AMES SALMONELLA TYPHIMURIUM, Strain/Indicator: TA100, Metabolic Activation: RAT, LIVER, S-9, AROCLOR 1254, Method: STANDARD PLATE) “inactive; negative”; (Test System: AMES SALMONELLA TYPHIMURIUM, Strain/Indicator: TA100, Metabolic Activation: S-9, AROCLOR 1254, Method: STANDARD PLATE) “active; positive”; (Test System: AMES SALMONELLA TYPHIMURIUM, Strain/Indicator: TA1535, Metabolic Activation: HAMSTER, LIVER, S-9, AROCLOR 1254 (10 OR 30%), Method: PREINCUBATION) “inactive; negative”; (Test System: AMES SALMONELLA TYPHIMURIUM, Strain/Indicator: TA1535, Metabolic Activation: NONE, Method: PREINCUBATION) “inactive; negative”; (Test System: AMES SALMONELLA TYPHIMURIUM, Strain/Indicator: TA1535, Metabolic Activation: NONE, Method: STANDARD PLATE) “inactive; negative”; (Test System: AMES SALMONELLA TYPHIMURIUM, Strain/Indicator: TA1535, Metabolic Activation: RAT, LIVER, S-9, AROCLOR 1254 (10 OR 30%), Method: PREINCUBATION) “inactive; negative”. For the same compound, the mutagenic call reads like this: (Test System: AMES SALMONELLA TYPHIMURIUM, Strain/Indicator: TA1535, Metabolic Activation: RAT, LIVER, S-9, AROCLOR 1254, Method: STANDARD PLATE) “inactive; negative”; under setting [2], “inactive; negative”; (Test System: AMES SALMONELLA TYPHIMURIUM, Strain/Indicator: TA1537, Metabolic Activation: RAT, LIVER, S-9, AROCLOR 1254, Method: STANDARD PLATE) “inactive; negative”; under setting [3], “inactive; negative”; (Test System: AMES SALMONELLA TYPHIMURIUM, Strain/Indicator: TA1538, Metabolic Activation: RAT, LIVER, S-9, AROCLOR 1254, Method: STANDARD PLATE) “inactive; negative”; (Test System: CHO/HGPRT, Strain/Indicator: CHO-K1-BH4, Metabolic Activation: NONE, Method: PREINCUBATION) “inactive; negative”. The mutagenic call is, setting by setting: (Test System: CHO/HGPRT, Strain/Indicator: CHO-K1-BH4, Metabolic Activation: RAT, LIVER, S-9, AROCLOR 1254, Method: PREINCUBATION) “inactive; negative”; (Test System: E. COLI, Strain/Indicator: WP2, Metabolic Activation: NONE, Method: STANDARD PLATE) “inactive; negative”; (Test System: E. COLI, Strain/Indicator: WP2, Metabolic Activation: RAT, LIVER, S-9, AROCLOR 1254, Method: STANDARD PLATE) “inactive; negative”.

For the compound `Fc1cc(F)c2ncccc2c1F`, the mutagenic call (Test System: AMES SALMONELLA TYPHIMURIUM, Strain/Indicator: TA100, Metabolic Activation: RAT LIVER S-9, PHENOBARBITAL AND 5,6-BENZOFLAVONE, Method: PREINCUBATION) was “active; positive”.

For `O=[N+]([O-])c1cccc2[nH]c3ccccc3c12`, the mutagenic call was “active; positive” under setting [1]; “active; positive” (Test System: AMES SALMONELLA TYPHIMURIUM, Strain/Indicator: TA98, Metabolic Activation: RAT, LIVER, S-9, PHENOBARBITAL, Method: STANDARD PLATE); “inactive; negative” under setting [2]; “inactive; negative” (Test System: AMES SALMONELLA TYPHIMURIUM, Strain/Indicator: TA1537, Metabolic Activation: RAT, LIVER, S-9, PHENOBARBITAL, Method: STANDARD PLATE); “active; positive” under setting [3]; “active; positive” (Test System: AMES SALMONELLA TYPHIMURIUM, Strain/Indicator: TA1538, Metabolic Activation: RAT, LIVER, S-9, PHENOBARBITAL, Method: STANDARD PLATE). Also, the mutagenic call was “inactive; negative” (Test System: AMES SALMONELLA TYPHIMURIUM, Strain/Indicator: TA1977, Metabolic Activation: NONE, Method: STANDARD PLATE) and “inactive; negative” (Test System: AMES SALMONELLA TYPHIMURIUM, Strain/Indicator: TA1977, Metabolic Activation: RAT, LIVER, S-9, PHENOBARBITAL, Method: STANDARD PLATE).
